This is an account of results in patent publication US12186310B2, “Antibody-drug conjugate” (DAIICHI SANKYO COMPANY, LIMITED, priority 2012, dated 2025).

Where two headings read alike, the source gives them in different places.

The test system of series [1] is A375 cells. Description: Cytotoxicity test (8) of released drug. The class given is cell-based. To be noted: Homo sapiens, A-375, 144 h, read-out: IC50, cytotoxic activity against the A375 cells. As to the method:
A375 cells (ATCC) were cultured in DMEM (GIBCO) containing 10% fetal bovine serum (MOREGATE) (hereinafter, referred to as a medium). The A375 cells were prepared to have a concentration of 4×10^4 cells/mL by using a medium, added at a concentration of 25 μL/well to a 96-well microplate for cell culture (CORNING) charged with […] of a medium, and cultured overnight. On the next day, each test substance diluted into 1000 nM, 200 nM, 40 nM, 8 nM, 1.6 nM, 0.32 nM, and 0.064 nM by using DMSO was added at a concentration of 0.5 μL/well to the microplate. DMSO was added at a concentration of 0.5 μL/well to test substance non-supplemented wells. The volume of the medium in each well was adjusted to 100 μL by the addition of 10 μL/well of a medium, and the cells were cultured under 5% CO2 at 37° C. for 6 days. After the culture, the microplate was taken out from the incubator and left standing at room temperature for 30 minutes. The culture solution was charged with an equal amount of CellTiter-Glo Luminescent Cell Viability Assay (Promega) and stirred. After the microplate was left standing at room temperature for 10 minutes, the amount of light emission was measured by using a plate reader. The IC50 value was calculated according to the following equation: IC50(nM)=antilog((50−d)×(LOG10b−LOG10a)/(d−c)+LOG10b) • a: Concentration a of the test substance • b: Concentration b of the test substance • c: Ratio of live cells supplemented with the test substance having the concentration a • d: Ratio of live cells supplemented with the test substance having the concentration b
The concentrations a and b establish the relation a>b crossing 50% ratio of live cells.
The survival rate of cells was calculated according to the following equation: Survival rate of cells (%)=a/b×100 • a: Average amount of light emission from the test substance-supplemented wells (n=2) • b: Average amount of light emission from the test substance non-supplemented wells (n=10)

Series [2] can be described thus: Self-degradation of released drug derivative with aminal structure. To be noted: undergoes a self-degradation to release HO—CH2—C(═O)—(NH-DX). The format is physicochemical.
The test system of series [3] is human tumor. To be noted: human tumor subcutaneously transplanted mouse model; cited from earlier work.
In series [4] the test system is various cancer cells. The following applies: against various cancer cells; cited from earlier work.
Series [5] has as its target T1, topoisomerase I (Homo sapiens, UniProt P11387).
T1 sequence (P11387 1-765): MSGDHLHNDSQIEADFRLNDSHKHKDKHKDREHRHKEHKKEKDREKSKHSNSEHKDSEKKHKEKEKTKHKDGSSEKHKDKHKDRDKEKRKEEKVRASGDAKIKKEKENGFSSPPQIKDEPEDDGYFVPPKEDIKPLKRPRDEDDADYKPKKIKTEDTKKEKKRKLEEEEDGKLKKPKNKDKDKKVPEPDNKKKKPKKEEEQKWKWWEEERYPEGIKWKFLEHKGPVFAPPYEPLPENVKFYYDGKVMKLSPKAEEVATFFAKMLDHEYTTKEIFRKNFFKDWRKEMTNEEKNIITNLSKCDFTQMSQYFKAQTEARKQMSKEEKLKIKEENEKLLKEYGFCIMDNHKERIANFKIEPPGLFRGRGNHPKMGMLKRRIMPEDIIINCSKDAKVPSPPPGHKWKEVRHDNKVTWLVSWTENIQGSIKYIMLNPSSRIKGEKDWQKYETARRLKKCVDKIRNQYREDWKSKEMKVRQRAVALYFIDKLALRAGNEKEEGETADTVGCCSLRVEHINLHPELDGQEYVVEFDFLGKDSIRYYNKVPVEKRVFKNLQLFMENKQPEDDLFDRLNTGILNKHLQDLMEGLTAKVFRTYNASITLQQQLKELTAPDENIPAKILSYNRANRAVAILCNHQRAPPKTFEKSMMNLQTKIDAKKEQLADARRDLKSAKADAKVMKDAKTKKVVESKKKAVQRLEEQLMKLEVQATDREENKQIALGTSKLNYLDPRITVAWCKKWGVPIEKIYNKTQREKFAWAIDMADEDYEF
To be noted: compared with SN-38 and topotecan; cited from earlier work.

Series [6] has as its system Human non-small cell lung cancer line Calu-6 cells. As to the kind of experiment: Antitumor test (3), subcutaneously transplanted Calu-6. The class given is in vivo, mouse. The following applies: Calu-6 subcutaneous, female nude mice; 10 mg/kg intravenously at Days 11, 18, and 25 (qw×3); FIG. 19.
Description: Assay and calculation expression: In all studies, the major axis and minor axis of tumor were measured twice a week by using an electronic digital caliper (CD-15C, Mitutoyo Corp.), and the tumor volume (mm^3) was calculated. The calculation expression is as shown below. Tumor volume (mm^3)=½×Major axis (mm)×[Minor axis (mm)]^2
Human non-small cell lung cancer line Calu-6 cells were purchased from ATCC (American Type Culture Collection). 5×10^6 cells suspended in physiological saline were subcutaneously transplanted to the right abdomen of each female nude mouse (Day 0), and the mice were randomly grouped at Day 11.
The subject of series [7] is Human melanoma line A375 cells. As to the kind of experiment: Antitumor test (1), subcutaneously transplanted A375. The class given is in vivo, mouse. The following applies: A375 subcutaneous, female nude mice; 10 mg/kg intravenously at Days 11, 18, and 25; FIG. 17. As to the method:
Mouse: 5- to 6-week-old female BALB/c nude mice (Charles River Laboratories Japan, Inc.) were acclimatized for 4 to 7 days under SPF conditions before use in the experiment. The mice were fed with sterilized solid feed (FR-2, Funabashi Farms Co., Ltd) and given sterilized tap water (prepared by the addition of 5 to 15 ppm sodium hypochlorite solution). Assay and calculation expression: In all studies, the major axis and minor axis of tumor were measured twice a week by using an electronic digital caliper (CD-15C, Mitutoyo Corp.), and the tumor volume (mm^3) was calculated. The calculation expression is as shown below. Tumor volume (mm^3)=1⁄2×Major axis (mm)×[Minor axis (mm)]^2 All of the antibody-drug conjugates were diluted with physiological saline (Otsuka Pharmaceutical Factory, Inc.) and used at a volume of 10 mL/kg for intravenous administration to the tail of each mouse. Human melanoma line A375 cells were purchased from ATCC (American Type Culture Collection). 8×10^6 cells suspended in physiological saline were subcutaneously transplanted to the right abdomen of each female nude mouse (Day 0), and the mice were randomly grouped at Day 11.

By IC50 is commonly meant the concentration that inhibits the measured activity by half. As to `CC[C@@]1(O)C(=O)OCc2c1cc1n(c2=O)Cc2c-1nc1cc(F)c(C)c3c1c2[C@@H](NC(=O)CCCN)CC3` [Example (1), 4-Amino-N-[(1S,9S)-9-ethyl-5-fluoro-9-hydroxy-4-methyl-10,13-dioxo-2,3,9,10,13,15-hexahydro-1H,12H-benzo[de]pyrano[3′,4′:6,7]indolizino[1,2-b]quinolin-1-yl]butanamide], the IC50 in series [1] fell in the range of 10 to 100 nM.

Regarding `CC[C@@]1(O)C(=O)OCc2c1cc1n(c2=O)Cc2c-1nc1cc(F)c(C)c3c1c2[C@@H](NC(=O)COCCN)CC3` [Example (42), 2-(2-Aminoethoxy)-N-[(1S,9S)-9-ethyl-5-fluoro-9-hydroxy-4-methyl-10,13-dioxo-2,3,9,10,13,15-hexahydro-1H,12H-benzo[de]pyrano[3′,4′:6,7]indolizino[1,2-b]quinolin-1-yl]acetamide], the IC50 in series [1] lay in the range of 1 to 10 nM. The same measure, in the same setting: then `CC[C@@]1(O)C(=O)OCc2c1cc1n(c2=O)Cc2c-1nc1cc(F)c(C)c3c1c2[C@@H](NC(=O)CO)CC3` [Example (75), N-[(1S,9S)-9-ethyl-5-fluoro-9-hydroxy-4-methyl-10,13-dioxo-2,3,9,10,13,15-hexahydro-1H,12H-benzo[de]pyrano[3′,4′:6,7]indolizino[1,2-b]quinolin-1-yl]-2-hydroxyacetamide], with 0.1 to 1 nM. With `CCC1(O)C(=O)OCc2c1cc1n(c2=O)Cc2c-1nc1cc(F)c(C)c3c1c2C(NC(=O)COCN)CC3` (stereo not shown) [NH2—CH2—O—CH2—C(═O)—(NH-DX)], in series [2], the “stability of the aminal structure in the molecule” value is given as “unstable”. In the case of `CC[C@@]1(O)C(=O)OCc2c1cc1n(c2=O)Cc2c-1nc1cc(F)c(C)c3c1c2[C@@H](N)CC3` [exatecan, (1S,9S)-1-amino-9-ethyl-5-fluoro-2,3-dihydro-9-hydroxy-4-methyl-1H,12H-benzo[de]pyrano[3′,4′:6,7]indolizino[1,2-b]quinolin-10,13(9H,15H)-dione], in series [3], the antitumor effect entry is “potent antitumor effect”. In addition, the IC50 in series [1] (released drug, cultured 6 days, CellTiter-Glo) was 0.1 to 1 nM. The “in vitro cytocidal activity” value in series [4] is reported as “higher in vitro cytocidal activity”. For the same molecule, in series [5], the “inhibitory activity on topoisomerase I” value was “higher than SN-38”.

B1: M30-H1-L4P antibody: M30-H1-L4 antibody with the modification of a glycan regulated by defucosylation (antibody, chains of the INN, looked up, V domains shown)
VH: QVQLVQSGAEVKKPGSSVKVSCKASGYTFTNYVMHWVRQAPGQGLEWMGYINPYNDDVKYNEKFKGRVTITADESTSTAYMELSSLRSEDTAVYYCARWGYYGSPLYYFDYWGQGTLVTVSS
VL: EIVLTQSPATLSLSPGERATLSCRASSRLIYMHWYQQKPGQAPRPLIYATSNLASGIPARFSGSGSGTDFTLTISSLEPEDFAVYYCQQWNSNPPTFGQGTKVEIK
modifications: defucosylated
notes: M30-H1-L4 antibody with the modification of a glycan regulated by defucosylation
In the case of B1, the tumor volume result in series [6] and in series [7] was “progression of tumor growth” throughout.
